Consider five compounds from ChEMBL document CHEMBL4138123, “Design, synthesis and biological evaluation of novel pyrazolochalcones as potential modulators of PI3K/Akt/mTOR pathway and inducers of apoptosis in breast cancer cells” (Eur J Med Chem, 2017).

For experiment [1], the system named is MCF7. Put plainly: Induction of intrinsic apoptosis in human MCF7 cells assessed as effect on mitochondrial membrane depolarization by measuring mean fluorescence intensity at 2 uM after 18 hrs by DiOC6 staining-based FACS analysis (reference value: 463). The class given is functional. Background: Flow cytometry measures light scatter and fluorescence of single cells or particles in a stream.

In experiment [2] the test system is MCF7. The experiment can be described thus: Cell cycle arrest in human MCF7 cells assessed as accumulation at G0/G1 phase at 2 uM after 24 hrs by flow cytometric analysis (reference value: 18.4%). The class given is functional.
The subject of experiment [3] is MCF7. Put plainly: Cell cycle arrest in human MCF7 cells assessed as accumulation at G2/M phase at 2 uM after 24 hrs by flow cytometric analysis (reference value: 2.35%). The class given is functional.
In experiment [4] the test system is MCF7. The experiment can be described thus: Cell cycle arrest in human MCF7 cells assessed as accumulation at S phase at 2 uM after 24 hrs by flow cytometric analysis (reference value: 79.1%). The class given is functional.
Experiment [5] relates to MCF7. The experiment can be described thus: Cell cycle arrest in human MCF7 cells assessed as accumulation at S phase at 2 uM after 48 hrs by flow cytometric analysis (reference value: 57.7%). The class given is functional.
Experiment [6] relates to MCF7. The experiment can be described thus: Induction of apoptosis in human MCF7 cells assessed as late apoptotic cells at 2 uM after 24 hrs by Annexin-V FITC/propidium iodide staining-based FACS analysis (reference value: 5.4%). The format is functional.
Experiment [7] concerns MCF7. The experiment can be described thus: Induction of apoptosis in human MCF7 cells assessed as early apoptotic cells at 2 uM after 24 hrs by Annexin-V FITC/propidium iodide staining-based FACS analysis (reference value: 0.5%). The class given is functional.
Experiment [8] relates to MCF7. The experiment can be described thus: Induction of apoptosis in human MCF7 cells assessed as viable cells at 2 uM after 24 hrs by Annexin-V FITC/propidium iodide staining-based FACS analysis (reference value: 93.9%). The format is functional. To be noted: MCF7, 24 h, read-out: Activity.
The test system of experiment [9] is MCF7. Put plainly: Downregulation of Akt protein expression in human MCF7 cells at 2 uM after 24 hrs by Western blot analysis. The class given is functional, cell-based. (In general: A western blot detects proteins with antibodies after separation by electrophoresis.)
Experiment [10] has as its system MCF7. Put plainly: Downregulation of mTOR protein expression in human MCF7 cells at 2 uM after 24 hrs by Western blot analysis. The format is functional, cell-based.
For experiment [11], the system named is MCF7. The experiment can be described thus: Inhibition of PI3K in human MCF7 cells assessed as increase in GSK-3beta phosphorylation at Ser9 at 2 uM after 24 hrs by Western blot analysis. The class given is cell-based.
Experiment [12] concerns MCF7. Put plainly: Upregulation of PTEN protein expression in human MCF7 cells at 2 uM after 24 hrs by Western blot analysis. The class given is functional, cell-based.
Experiment [13] relates to MCF7. The experiment can be described thus: Downregulation of Akt protein expression in human MCF7 cells at 2 uM after 48 hrs by Alexa/DAPI staining-based immunofluorescence analysis. The format is functional, cell-based.
Experiment [14] has as its system MCF7. The experiment can be described thus: Downregulation of PI3K mRNA expression in human MCF7 cells at 2 uM after 48 hrs by qRT-PCR analysis. The class given is functional, cell-based. A general note: Quantitative PCR measures a nucleic acid by following its amplification.
Experiment [15] relates to MCF7. The experiment can be described thus: Upregulation of PTEN mRNA expression in human MCF7 cells at 2 uM after 48 hrs by qRT-PCR analysis. The format is functional, cell-based.
For experiment [16], the system named is MCF7. Put plainly: Upregulation of BAX mRNA expression in human MCF7 cells at 2 uM after 48 hrs by qRT-PCR analysis. The format is functional, cell-based.
Experiment [17] has as its system MCF7. The experiment can be described thus: Upregulation of TP53 mRNA expression in human MCF7 cells at 2 uM after 48 hrs by qRT-PCR analysis. The class given is functional, cell-based.
Experiment [18] deals with MCF7. The experiment can be described thus: Induction of intrinsic apoptosis in human MCF7 cells assessed as effect on mitochondrial membrane depolarization at 2 uM after 5 hrs by DiOC6 staining-based FACS analysis relative to control. The class given is functional.

Activity calls are given as the source filed them. The calls are words filed in the database; no cut-off is given here.

Regarding `COc1cc(C(=O)/C=C/c2cc(-c3cc(OC)c(OC)c(OC)c3)n[nH]2)cc(OC)c1OC`, the Flu intensity in the experiment on MCF7 [1] was 637. Besides, the Activity with MCF7 [2] was found to be 16.6%; in the experiment with MCF7 [3], 10.3%; with MCF7 [4], 73.1%; in the experiment with MCF7 [5], 33%; in the experiment with MCF7 [6] it was 11.2%; in the experiment with MCF7 [7], 3.1%. Moreover, the viability at 2 µM with MCF7 [8] stood at 84.6%. The outcome with MCF7 [9], in the experiment with MCF7 [10], with MCF7 [12], in the experiment with MCF7 [13], with MCF7 [14] and in the experiment with MCF7 [15] was Active. For the same compound, the result in the experiment on MCF7 [16] and in the experiment on MCF7 [17] was Active. For the same compound, the “Activity call (increase in GSK-3beta Ser9 phosphorylation)” value in the experiment on MCF7 [11] was “Active”.

With `COc1ccc(C(=O)/C=C/c2cc(-c3cc(OC)c(OC)c(OC)c3)n[nH]2)cc1OC`, the Flu intensity with MCF7 [1] is given as 294. Also, the Activity stood at 30.8% in the experiment on MCF7 [2]; 39.9% with MCF7 [3]; 29.3% with MCF7 [4]; 43% with MCF7 [5]; 4.2% with MCF7 [6]; 1.4% with MCF7 [7]. For the same compound, in the experiment with MCF7 [8], the viability at 2 µM turned out to be 94.3%. The outcome with MCF7 [9], in the experiment on MCF7 [10], in the experiment on MCF7 [12], in the experiment with MCF7 [13], in the experiment with MCF7 [14] and in the experiment on MCF7 [15] was Active. The result with MCF7 [16] and in the experiment on MCF7 [17] was Active. Also, in the experiment with MCF7 [11], the “Activity call (increase in GSK-3beta Ser9 phosphorylation)” value is “Active”.

As to `COc1cc(C(=O)/C=C/c2cc(-c3ccc4c(c3)OCO4)n[nH]2)cc(OC)c1OC`, the Activity in the experiment with MCF7 [18] is on record as 3.4%; in the experiment on MCF7 [2], 35.4%; in the experiment on MCF7 [3], 64.6%; in the experiment on MCF7 [4], 0%; with MCF7 [5], 59.1%; in the experiment on MCF7 [6], 8.4%. Further, the Activity in the experiment with MCF7 [7] worked out at 0.7%. In the experiment with MCF7 [1], the Flu intensity stood at 313. In addition, the viability at 2 µM in the experiment on MCF7 [8] is 89.2%. The outcome in the experiment with MCF7 [9], with MCF7 [10], in the experiment on MCF7 [12], in the experiment on MCF7 [13], with MCF7 [14] and in the experiment with MCF7 [15] was Active. Besides, the outcome in the experiment on MCF7 [16] and in the experiment with MCF7 [17] was Active. Further, in the experiment on MCF7 [11], the “Activity call (increase in GSK-3beta Ser9 phosphorylation)” value was “Active”.

Consider `COc1ccc(C(=O)/C=C/c2cc(-c3cc(OC)c(OC)c(OC)c3)n[nH]2)cc1`, for which the outcome in the experiment on MCF7 [9], with MCF7 [10], in the experiment on MCF7 [12], in the experiment with MCF7 [13], in the experiment with MCF7 [14] and with MCF7 [15] was Active. Besides, the result in the experiment with MCF7 [16] and in the experiment on MCF7 [17] was Active. The “Activity call (increase in GSK-3beta Ser9 phosphorylation)” value in the experiment on MCF7 [11] is “Active”.

Regarding `COc1ccc(-c2cc(/C=C/C(=O)c3ccc(OC)c(OC)c3)[nH]n2)cc1`, in the experiment with MCF7 [1], the Flu intensity was 355. In addition, the Activity is listed as 15.3% in the experiment on MCF7 [2]; 18.6% in the experiment with MCF7 [3]; 66.1% with MCF7 [4]; 38.9% in the experiment with MCF7 [5]; 4.4% in the experiment on MCF7 [6]; 1.1% in the experiment on MCF7 [7]. Also, in the experiment with MCF7 [8], the viability at 2 µM was determined as 93.8%. Also, the outcome with MCF7 [9], with MCF7 [10], in the experiment on MCF7 [12], with MCF7 [13], in the experiment with MCF7 [14] and in the experiment on MCF7 [15] was Active. The result in the experiment with MCF7 [16] and in the experiment with MCF7 [17] was Active. Also, the “Activity call (increase in GSK-3beta Ser9 phosphorylation)” value with MCF7 [11] was “Active”.
